Measured values from paper PMC12446458, “Structural basis for DNA break sensing by human MRE11-RAD50-NBS1 and its regulation by telomeric factor TRF2” (Nature Communications, 2025).

Key:
[1] = molecular target: T1, MR complex (human MRE11-RAD50) (Homo sapiens, UniProt Q92878); assay: NADH-coupled ATPase assay; type: biochemical; conditions: 0.15 mM ATP, 2 mM MgCl2, 1 mM MnCl2, pH 7.5, 37 °C; with and without 64 bp Myb DNA; rate in figure only
T1 construct: MR complex, no NBS1; with Double-strand break repair protein MRE11
T1 sequence (Q92878 1-1312): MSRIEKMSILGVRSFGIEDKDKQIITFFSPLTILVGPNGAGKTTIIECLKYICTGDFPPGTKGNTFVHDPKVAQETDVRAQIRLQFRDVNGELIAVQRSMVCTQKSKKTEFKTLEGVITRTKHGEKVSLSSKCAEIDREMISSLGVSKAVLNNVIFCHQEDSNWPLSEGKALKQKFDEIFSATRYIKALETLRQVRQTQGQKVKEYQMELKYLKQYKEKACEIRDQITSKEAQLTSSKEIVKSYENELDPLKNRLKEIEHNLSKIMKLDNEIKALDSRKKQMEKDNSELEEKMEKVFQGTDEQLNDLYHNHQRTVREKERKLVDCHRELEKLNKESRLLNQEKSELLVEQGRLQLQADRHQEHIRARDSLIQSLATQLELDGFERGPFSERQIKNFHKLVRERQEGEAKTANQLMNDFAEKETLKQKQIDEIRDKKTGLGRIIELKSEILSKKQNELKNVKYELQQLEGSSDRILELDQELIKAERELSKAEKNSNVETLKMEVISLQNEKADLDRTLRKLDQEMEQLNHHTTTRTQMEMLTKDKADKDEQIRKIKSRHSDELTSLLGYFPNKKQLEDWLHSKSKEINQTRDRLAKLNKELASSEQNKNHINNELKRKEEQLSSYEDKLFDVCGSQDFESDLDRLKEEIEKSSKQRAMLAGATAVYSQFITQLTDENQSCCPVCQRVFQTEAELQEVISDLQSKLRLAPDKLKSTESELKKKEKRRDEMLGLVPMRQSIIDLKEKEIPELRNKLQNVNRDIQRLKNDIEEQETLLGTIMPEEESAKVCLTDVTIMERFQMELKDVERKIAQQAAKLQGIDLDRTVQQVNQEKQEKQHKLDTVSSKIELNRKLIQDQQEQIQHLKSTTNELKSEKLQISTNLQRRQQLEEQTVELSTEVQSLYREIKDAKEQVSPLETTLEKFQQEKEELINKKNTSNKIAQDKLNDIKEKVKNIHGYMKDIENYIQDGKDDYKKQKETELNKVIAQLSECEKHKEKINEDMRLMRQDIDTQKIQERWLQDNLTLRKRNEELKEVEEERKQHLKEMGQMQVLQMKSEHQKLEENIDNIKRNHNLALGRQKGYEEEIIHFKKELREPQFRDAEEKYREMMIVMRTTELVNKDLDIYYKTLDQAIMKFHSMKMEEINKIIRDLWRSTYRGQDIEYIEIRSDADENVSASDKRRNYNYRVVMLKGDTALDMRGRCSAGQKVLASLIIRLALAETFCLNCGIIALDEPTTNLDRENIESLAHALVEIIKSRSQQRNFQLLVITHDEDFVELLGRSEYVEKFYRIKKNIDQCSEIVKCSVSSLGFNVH
T1 sequence (P49959 2-708 partner): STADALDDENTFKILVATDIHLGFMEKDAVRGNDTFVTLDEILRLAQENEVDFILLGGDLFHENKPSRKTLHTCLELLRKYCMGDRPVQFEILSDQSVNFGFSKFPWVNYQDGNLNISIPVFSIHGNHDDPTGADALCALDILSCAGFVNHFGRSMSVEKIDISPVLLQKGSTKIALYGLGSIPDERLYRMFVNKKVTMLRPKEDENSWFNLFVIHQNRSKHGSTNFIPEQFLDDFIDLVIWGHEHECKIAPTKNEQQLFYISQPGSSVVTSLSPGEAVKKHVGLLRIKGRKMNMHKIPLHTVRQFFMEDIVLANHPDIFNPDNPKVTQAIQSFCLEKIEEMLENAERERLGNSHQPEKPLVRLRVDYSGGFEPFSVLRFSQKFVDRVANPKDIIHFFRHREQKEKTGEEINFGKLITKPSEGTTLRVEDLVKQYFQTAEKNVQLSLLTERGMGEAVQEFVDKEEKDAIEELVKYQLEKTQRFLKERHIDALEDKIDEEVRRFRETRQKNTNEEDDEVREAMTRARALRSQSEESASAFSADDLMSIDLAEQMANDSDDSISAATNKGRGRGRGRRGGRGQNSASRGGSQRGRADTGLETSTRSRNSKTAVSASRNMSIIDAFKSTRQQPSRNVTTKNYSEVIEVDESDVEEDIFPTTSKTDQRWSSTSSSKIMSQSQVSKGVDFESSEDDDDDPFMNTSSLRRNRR

[2] = molecular target: T2, MRN complex (human MRE11-RAD50-NBS1) (Homo sapiens, UniProt Q92878); assay: NADH-coupled ATPase assay; type: biochemical; conditions: 0.15 mM ATP, 2 mM MgCl2, 1 mM MnCl2, pH 7.5, 37 °C; with and without 64 bp Myb DNA; rate in figure only; MRE11 wild type or H129N not clearly told for this assay
T2 construct: Expi293F (MRE11 H129N) or Hi5 insect cells (wild type); with Double-strand break repair protein MRE11; Nibrin
T2 sequence (Q92878 1-1312): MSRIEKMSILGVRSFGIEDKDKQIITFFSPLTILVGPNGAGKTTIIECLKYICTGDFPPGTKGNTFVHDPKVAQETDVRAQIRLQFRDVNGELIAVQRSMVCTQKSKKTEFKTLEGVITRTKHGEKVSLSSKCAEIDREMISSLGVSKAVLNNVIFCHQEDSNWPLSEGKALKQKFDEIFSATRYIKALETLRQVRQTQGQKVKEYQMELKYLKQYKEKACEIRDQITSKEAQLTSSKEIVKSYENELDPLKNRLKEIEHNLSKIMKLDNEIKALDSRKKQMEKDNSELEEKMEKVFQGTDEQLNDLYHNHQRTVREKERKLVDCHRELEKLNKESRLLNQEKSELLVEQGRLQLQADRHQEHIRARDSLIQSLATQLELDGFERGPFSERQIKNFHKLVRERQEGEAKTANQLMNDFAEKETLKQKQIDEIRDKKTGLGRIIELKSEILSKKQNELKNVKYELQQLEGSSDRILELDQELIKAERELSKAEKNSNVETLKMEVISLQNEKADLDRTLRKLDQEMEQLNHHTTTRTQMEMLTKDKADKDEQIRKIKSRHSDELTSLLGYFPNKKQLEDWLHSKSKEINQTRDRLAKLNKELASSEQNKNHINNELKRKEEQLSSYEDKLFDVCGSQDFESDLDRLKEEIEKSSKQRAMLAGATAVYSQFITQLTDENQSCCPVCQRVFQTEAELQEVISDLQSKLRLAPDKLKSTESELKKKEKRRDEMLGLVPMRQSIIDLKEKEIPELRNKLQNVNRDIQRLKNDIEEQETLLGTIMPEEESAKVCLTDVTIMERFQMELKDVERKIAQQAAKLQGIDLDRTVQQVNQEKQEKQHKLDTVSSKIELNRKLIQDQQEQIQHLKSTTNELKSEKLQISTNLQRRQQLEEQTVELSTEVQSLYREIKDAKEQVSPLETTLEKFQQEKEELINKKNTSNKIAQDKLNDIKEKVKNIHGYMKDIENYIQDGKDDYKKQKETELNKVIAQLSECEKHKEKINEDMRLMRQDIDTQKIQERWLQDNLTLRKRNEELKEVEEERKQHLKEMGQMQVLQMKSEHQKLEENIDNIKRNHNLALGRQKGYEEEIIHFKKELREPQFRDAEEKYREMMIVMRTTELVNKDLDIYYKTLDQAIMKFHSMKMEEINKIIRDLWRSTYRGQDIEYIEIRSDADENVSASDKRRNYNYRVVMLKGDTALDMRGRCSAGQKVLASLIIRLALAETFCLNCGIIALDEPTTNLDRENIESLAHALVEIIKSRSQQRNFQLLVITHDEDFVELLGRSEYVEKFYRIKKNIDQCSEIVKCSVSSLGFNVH
T2 sequence (P49959 2-708 partner): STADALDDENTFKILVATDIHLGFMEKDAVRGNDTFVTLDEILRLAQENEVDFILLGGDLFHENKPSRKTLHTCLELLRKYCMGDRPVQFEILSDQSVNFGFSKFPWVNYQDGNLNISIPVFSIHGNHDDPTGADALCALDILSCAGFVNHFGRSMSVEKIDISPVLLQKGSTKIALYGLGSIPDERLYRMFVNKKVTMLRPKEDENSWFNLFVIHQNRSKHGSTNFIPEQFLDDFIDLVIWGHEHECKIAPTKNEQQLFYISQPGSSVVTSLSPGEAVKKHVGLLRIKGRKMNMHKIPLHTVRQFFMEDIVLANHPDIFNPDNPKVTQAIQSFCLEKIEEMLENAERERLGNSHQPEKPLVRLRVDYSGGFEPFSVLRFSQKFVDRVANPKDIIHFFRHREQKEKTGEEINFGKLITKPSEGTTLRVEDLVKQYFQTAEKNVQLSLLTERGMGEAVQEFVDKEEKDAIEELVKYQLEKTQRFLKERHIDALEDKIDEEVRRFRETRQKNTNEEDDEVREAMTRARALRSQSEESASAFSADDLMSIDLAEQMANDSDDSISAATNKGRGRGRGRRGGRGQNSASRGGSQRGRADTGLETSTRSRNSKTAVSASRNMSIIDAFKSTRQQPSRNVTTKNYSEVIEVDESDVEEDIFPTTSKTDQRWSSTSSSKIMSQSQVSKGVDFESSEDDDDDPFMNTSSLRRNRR
T2 sequence (O60934 1-754 partner): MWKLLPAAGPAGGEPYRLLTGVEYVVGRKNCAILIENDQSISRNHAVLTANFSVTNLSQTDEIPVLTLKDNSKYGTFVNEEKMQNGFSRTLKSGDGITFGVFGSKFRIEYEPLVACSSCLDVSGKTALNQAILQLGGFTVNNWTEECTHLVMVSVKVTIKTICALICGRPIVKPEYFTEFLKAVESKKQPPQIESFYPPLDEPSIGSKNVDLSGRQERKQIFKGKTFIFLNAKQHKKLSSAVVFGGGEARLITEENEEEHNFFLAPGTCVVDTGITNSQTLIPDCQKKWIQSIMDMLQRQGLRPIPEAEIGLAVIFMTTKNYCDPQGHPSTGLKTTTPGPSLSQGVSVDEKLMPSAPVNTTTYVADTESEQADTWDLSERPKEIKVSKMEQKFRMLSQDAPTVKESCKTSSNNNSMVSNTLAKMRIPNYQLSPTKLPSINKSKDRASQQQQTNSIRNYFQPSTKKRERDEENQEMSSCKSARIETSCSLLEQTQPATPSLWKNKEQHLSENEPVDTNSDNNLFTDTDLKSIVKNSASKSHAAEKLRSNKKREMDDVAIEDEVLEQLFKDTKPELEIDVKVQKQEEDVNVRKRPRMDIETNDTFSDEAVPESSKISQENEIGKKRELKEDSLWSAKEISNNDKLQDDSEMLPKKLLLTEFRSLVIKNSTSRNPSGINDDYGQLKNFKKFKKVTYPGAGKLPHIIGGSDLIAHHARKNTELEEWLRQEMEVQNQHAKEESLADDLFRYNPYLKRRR

TRF2 full length = TRF2 full length (Homo sapiens, UniProt Q15554 1-542); assay: fluorescence anisotropy; 1 mM ATP, 5 mM Mg2+; two specific binding sites fit; FA: 25 mM HEPES pH 8.0, 100 mM NaCl, 5 mM MgCl2, 0.2 mg/ml BSA, 1 mM DTT, 1 mM ATP unless stated, 30 nM 6-FAM DNA, read over 30 min; temperature not stated; conditions: protein: recombinant; tags: MBP removed (3C); C-terminal His10; chain copies: 2; blunt
Sequence of TRF2 full length (Q15554 whole entry): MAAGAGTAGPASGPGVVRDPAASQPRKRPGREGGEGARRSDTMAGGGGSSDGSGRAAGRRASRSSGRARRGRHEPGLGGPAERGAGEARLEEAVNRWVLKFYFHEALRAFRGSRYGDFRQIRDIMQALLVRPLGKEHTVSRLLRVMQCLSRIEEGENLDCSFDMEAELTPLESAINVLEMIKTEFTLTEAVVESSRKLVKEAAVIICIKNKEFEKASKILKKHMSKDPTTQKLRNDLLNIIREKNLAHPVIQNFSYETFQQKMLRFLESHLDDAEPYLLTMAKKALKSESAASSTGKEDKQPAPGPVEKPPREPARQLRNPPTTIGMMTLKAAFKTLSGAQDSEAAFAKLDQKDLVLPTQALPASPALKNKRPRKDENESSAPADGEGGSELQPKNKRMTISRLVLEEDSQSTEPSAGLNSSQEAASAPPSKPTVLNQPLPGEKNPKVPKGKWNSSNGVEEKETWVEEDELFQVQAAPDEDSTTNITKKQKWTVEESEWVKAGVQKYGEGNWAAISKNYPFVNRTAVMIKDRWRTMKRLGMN

Question: Which results are given for `Nc1ncnc2c1ncn2[C@@H]1O[C@H](COP(=O)(O)OP(=O)(O)OP(=O)(O)O)[C@@H](O)[C@H]1O` [ATP]?
Answer: NADH-coupled ATPase assay [1]: ATPase activity of MR(N) complex stimulated by DNA binding; NADH-coupled ATPase assay [2]: The purified MRN complex showed the characteristic DNA-stimulated ATPase activity

B1: 64 bp Myb DNA, 6-FAM (dsDNA)
DNA 1: TCTAGGGTTAGGGTTAGATTAACGCTTCTGGAGAAACTCAACGAGCTCTAACCCTAACCCTAGA
DNA 2: TCTAGGGTTAGGGTTAGAGCTCGTTGAGTTTCTCCAGAAGCGTTAATCTAACCCTAACCCTAGA
Question: How did the Kd (TRF2 full length) turn out when B1 was run?
Answer: 121 nM
